Measured values: PubChem BioAssay AID180 (DTP/NCI, 2004)
Several values for one entry are separate records, joined by “and”; a condition that tells them apart may be missing. Identical values can stand only once.

Test system: BDF1 mice, Adenocarcinoma 755 s.c., tumor weight T/C
Experiment: NCI In Vivo Anticancer Drug Screen. Data for tumor model Adenocarcinoma 755 (subcutaneous) in B6D2F1 (BDF1) mice
Conditions: endpoint: mean tumor weight, higher = larger tumour
In short: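 Values express treated (T) relative to vehicle-dosed control (C) animals, based on survival or tumour size measured after compound treatment of mice bearing a transplanted tumour.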

[1] = dose: 15.0 mg/kg/injection, schedule: Q01DX011 (ip), vehicle: methylcellulose (MC)

Cc1cc2nc3c(=O)[nH]c(=O)nc-3n(CCOC(=O)CCC(=O)O)c2cc1C
T/C (dose: 29.46 mg/kg/injection, schedule: Q01DX011 (ip), vehicle: carboxymethylcellulose (CMC)): 88 % of control
T/C (dose: 40.0 mg/kg/injection, schedule: Q01DX011 (ip), vehicle: carboxymethylcellulose (CMC)): 91 % of control
T/C (dose: 58.93 mg/kg/injection, schedule: Q01DX011 (ip), vehicle: carboxymethylcellulose (CMC)): 94 % of control
T/C (dose: 80.0 mg/kg/injection, schedule: Q01DX011 (ip), vehicle: carboxymethylcellulose (CMC)): 122 % of control
T/C (dose: 117.85 mg/kg/injection, schedule: Q01DX011 (ip), vehicle: carboxymethylcellulose (CMC)): 93 % of control
T/C (dose: 126.0 mg/kg/injection, schedule: Q01DX011 (ip), vehicle: carboxymethylcellulose (CMC)): 107 % of control
T/C (dose: 160.0 mg/kg/injection, schedule: Q01DX011 (ip), vehicle: carboxymethylcellulose (CMC)): 59 % of control
T/C (dose: 235.7 mg/kg/injection, schedule: Q01DX011 (ip), vehicle: carboxymethylcellulose (CMC)): 90 % of control
T/C (dose: 252.0 mg/kg/injection, schedule: Q01DX011 (ip), vehicle: carboxymethylcellulose (CMC)): 115 % of control

CSc1nc2c(=O)[nH]c(N)nc2n1C1OC(CO)C(O)C1O (centres undefined)
T/C (dose: 30.0 mg/kg/injection, schedule: Q01DX011 (ip), vehicle: carboxymethylcellulose (CMC)): 88 % of control
T/C (dose: 60.0 mg/kg/injection, schedule: Q01DX011 (ip), vehicle: carboxymethylcellulose (CMC)): 98 % of control
T/C (dose: 120.0 mg/kg/injection, schedule: Q01DX011 (ip), vehicle: carboxymethylcellulose (CMC)): 91 % of control
T/C (dose: 240.0 mg/kg/injection, schedule: Q01DX011 (ip), vehicle: carboxymethylcellulose (CMC)): 47 % of control

CCC(=O)c1cc2c(cc1CC)C(C)(C)CCC2(C)C
T/C (dose: 100.0 mg/kg/injection, schedule: Q01DX011 (ip), vehicle: carboxymethylcellulose (CMC)): 53 % of control and 63 % of control

Nc1nc(Nc2ccccc2Cl)cc(=O)[nH]1
T/C [1]: 119 % of control
T/C (dose: 62.0 mg/kg/injection, schedule: Q01DX011 (ip), vehicle: methylcellulose (MC)): 95 % of control

CN(C)[C@@H]1C(=O)C(C(=O)NCNC2(C(=O)O)CCCC2)=C(O)[C@@]2(O)C(=O)C3=C(O)c4c(O)cccc4[C@@](C)(O)[C@H]3C[C@@H]12
T/C (dose: 50.0 mg/kg/injection, schedule: Q01DX011 (ip), vehicle: saline): 77 % of control
T/C (dose: 75.0 mg/kg/injection, schedule: Q01DX011 (ip), vehicle: saline): 65 % of control
T/C (dose: 125.0 mg/kg/injection, schedule: Q01DX011 (ip), vehicle: saline): 41 % of control
T/C (dose: 250.0 mg/kg/injection, schedule: Q01DX011 (ip), vehicle: saline): 1 % of control

CC(C)OC(=O)C1(N)CCCC1
T/C (dose: 3.5 mg/kg/injection, schedule: Q01DX011 (ip), vehicle: carboxymethylcellulose (CMC)): 43 % of control
T/C (dose: 7.0 mg/kg/injection, schedule: Q01DX011 (ip), vehicle: carboxymethylcellulose (CMC)): 55 % of control
T/C (dose: 7.0 mg/kg/injection, schedule: Q01DX011 (ip), vehicle: saline): 95 % of control
T/C (dose: 14.0 mg/kg/injection, schedule: Q01DX011 (ip), vehicle: carboxymethylcellulose (CMC)): 55 % of control
T/C (dose: 14.0 mg/kg/injection, schedule: Q01DX011 (ip), vehicle: saline): 96 % of control
T/C (dose: 28.0 mg/kg/injection, schedule: Q01DX011 (ip), vehicle: saline): 34 % of control and 58 % of control
T/C (dose: 56.0 mg/kg/injection, schedule: Q01DX011 (ip), vehicle: carboxymethylcellulose (CMC)): 42 % of control
T/C (dose: 113.0 mg/kg/injection, schedule: Q01DX011 (ip), vehicle: saline): 6 % of control
T/C (dose: 120.0 mg/kg/injection, schedule: Q01DX011 (ip), vehicle: other): 10 % of control

CSc1ncc(Br)c(Nc2ccccc2Cl)n1
T/C [1]: 110 % of control
T/C (dose: 31.0 mg/kg/injection, schedule: Q01DX011 (ip), vehicle: methylcellulose (MC)): 104 % of control
T/C (dose: 250.0 mg/kg/injection, schedule: Q01DX011 (ip), vehicle: methylcellulose (MC)): 155 % of control

C[C@H]1C[C@@H]2[C@H](C(=O)C[C@@]3(C)[C@H]2CC[C@]3(O)C(=O)CO)[C@@]2(C)C=CC(=O)C=C12
T/C (dose: 50.0 mg/kg/injection, schedule: Q01DX011 (sc), vehicle: steriod suspending solution): 30 % of control
T/C (dose: 100.0 mg/kg/injection, schedule: Q01DX011 (sc), vehicle: steriod suspending solution): 23 % of control
